Where two headings read alike, the source gives them in different places. Ends that are not written are not given here.
How the values were obtained:
[1] = target: Human DDB1 (Homo sapiens (Human), UniProt Q16531); experiment: Surface plasmon resonance (SPR) binding assay to immobilized His-DDB1
Procedure, shortened: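 Baculovirus-expressed His-DDB1 (High5 cells) amine-coupled to 11,000–13,000 RU on a CM5 chip; compounds injected in multi-cycle format without regeneration at 25° C in HBS-EP pH 7.4 (120 s association/dissociation). Double-referenced, solvent-corrected data fit to steady-state affinity model for KD.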

[2] = target: CDK4 (Homo sapiens (Human), UniProt P11802); experiment: Immunoblot of CDK4 protein in Calu-1 cells; assay type: cell-based; conditions: indicated concentrations, 16 hours, immunoblot
Description: Additional heterobifunctional compounds were designed and tested for their ability to target and degrade another two target proteins, CDK4 and CDK6. Calu-1 cells that express CDK4/6 proteins were treated with heterobifunctional compounds disclosed herein (D-44 to D-49) at indicated concentrations for 16 hours. Cells were collected, lysed and subject to immunoblotting using an antibody specific to CDK4, CDK6 or phosphorylated Rb proteins. Tubulin was included as the loading control. DMSO treatment was used as the negative control. […] In addition, Calu-1 cells were treated with 1 μM D-48 or D-49 for an indicated period of time. Subsequently, changes in CDK4 and CDK6 protein levels were measured by immunoblotting. […] These experiments highlight the ability of DDB1 binder derived heterobifunctional compounds to degrade multiple different target proteins, including but not limited to epigenetic target proteins, such as CBP and p300, and kinases, such as CDK4 and CDK6.

[3] = target: T1, P300 (Homo sapiens (Human), UniProt Q09472); experiment: Immunoblot of P300 protein in LNCaP cells after compound treatment; assay type: cell-based
Description: (§1) Experiments were performed to see if heterobifunctional compounds as described herein could degrade target proteins. Specific exemplary heterobifunctional compounds were characterized in LNCaP and Calu-1 cells. LNCaP cells that express P300/CBP proteins were treated with heterobifunctional compounds disclosed herein (D-2, D-13, or D-7) at indicated concentrations for 8 hours. Cells were collected, lysed and subject to immunoblotting using an antibody specific to P300 or CBP proteins. Vinculin was included as the loading control. DMSO treatment was used as the negative control. […] In addition, LNCaP cells were treated with 500 nM of D-2, or D-13 for indicated period of time. Subsequently, changes in P300 and CBP protein levels were measured by immunoblotting.

[4] = target: CBP (Homo sapiens (Human), UniProt Q92793); experiment: Immunoblot of CBP protein in LNCaP cells after compound treatment; assay type: cell-based
Description: as §1

[5] = target: T1, P300; experiment: Immunoblot of P300 in Calu-1 cells with co-administered proteasome, neddylation or DDB1-ligand competitor; assay type: cell-based
Source text: The heterobifunctional compound-mediated p300 and CBP degradation was dependent on the ubiquitin-proteasome system and cullin E3 ligase. […] The binding with DDB1 also played a role in the heterobifunctional compounds ability to induce degradation of P300 and CBP proteins.

[6] = test system: Calu-1, MDA-MB-453, and MIA PaCa-2 cell lines; experiment: Cell viability after 5 days of treatment; assay type: cell-based; conditions: variety of different cell types
Source text: FIG. 12 and Table 8 include cell viability data after treatment with heterobifunctional compound D-128, D129, or D-130. […] The compounds may be effective in multiple cell types.

[7] = test system: SK-MEL-28; experiment: Cell viability assay (CellTiter-Glo); assay type: cell-based; conditions: Homo sapiens, 120 h; SK-MEL-28, 5 days
Description: (§2) A variety of cancer cell lines were treated with Palbociclib or selected heterobifunctional compounds for 5 days at indicated concentrations in FIG. 12.
(§3) Cell Culture. LNCaP (clone FGC), Calu-1, MDA-MB-468, MDA-MB-453, NCI-H358, HCC1937, BT-549, HCT116, A375, SK-MEL-28, SK-N-SH, MIA PaCa-2, HS 578T, HCC827, MIA PaCa-2, and other cells were cultured at 37° C. with 5% CO2 in DMEM or RPMI 1640 Medium supplemented with 10% fetal bovine serum. Cells were authenticated using the short tandem repeat (STR) assays. Mycoplasma test results were negative.
(§4) Cell viability assay. Cells were seeded at a density of 5000 cells per well in 96-well assay plates and treated with test compounds following a 11-point 3-fold serial dilution for 3-5 days. Three days later, cell viability was determined using the CellTiter-Glo Assay Kit according to the manufacturer's instructions. The dose-response curves were determined and IC50 values were calculated using the GraphPad Prism software following a nonlinear regression (least squares fit) method.

[8] = test system: SK-N-SH; experiment: Cell viability assay (CellTiter-Glo); assay type: cell-based; conditions: Homo sapiens, 120 h, 5 days
Description: as §2, §3, §4

[9] = test system: HCC1937; experiment: Cell viability assay (CellTiter-Glo); assay type: cell-based; conditions: Homo sapiens, 120 h; HCC1937, 5 days
Description: as §2, §3, §4

[10] = test system: HCC827; experiment: Cell viability assay (CellTiter-Glo); assay type: cell-based; conditions: Homo sapiens, 120 h; HCC827, 5 days
Description: as §2, §3, §4

[11] = test system: A375; experiment: Cell viability assay (CellTiter-Glo); assay type: cell-based; conditions: Homo sapiens, A-375, 120 h; A375, 5 days
Description: as §2, §3, §4

[12] = test system: Hs 578T; experiment: Cell viability assay (CellTiter-Glo); assay type: cell-based; conditions: Homo sapiens, 120 h, 5 days
Description: as §2, §3, §4

[13] = test system: NCI-H358; experiment: Cell viability assay (CellTiter-Glo); assay type: cell-based; conditions: Homo sapiens, 120 h; NCI-H358, 5 days
Description: as §2, §3, §4

[14] = test system: BT-549; experiment: Cell viability assay (CellTiter-Glo); assay type: cell-based; conditions: Homo sapiens, 120 h; BT-549, 5 days
Description: as §2, §3, §4

[15] = test system: MDAMB-468; experiment: Cell viability assay (CellTiter-Glo); assay type: cell-based; conditions: Homo sapiens, MDA-MB-468, 120 h; MDAMB-468, 5 days
Description: as §2, §3, §4

[16] = test system: HCT116; experiment: Cell viability assay (CellTiter-Glo); assay type: cell-based; conditions: Homo sapiens, HCT-116, 120 h; HCT116, 5 days
Description: as §2, §3, §4

[17] = test system: MDAMB-453; experiment: Cell viability assay (CellTiter-Glo); assay type: cell-based; conditions: Homo sapiens, MDA-MB-453, 120 h; MDAMB-453, 5 days
Description: (§5) Calu-1, MDA-MB-453 or MIA PaCa-2 cancer cells were treated with Palbociclib or selected heterobifunctional compounds for 5 days at indicated concentrations following a 2-fold serial dilution.
as §2, §3, §4

[18] = test system: Calu-1; experiment: Cell viability assay (CellTiter-Glo); assay type: cell-based; conditions: Homo sapiens, 120 h; Calu-1, 5 days
Description: as §5, §2, §3, §4

[19] = test system: MIA PaCa-2; experiment: Cell viability assay (CellTiter-Glo); assay type: cell-based; conditions: Homo sapiens, 120 h; MIA PaCa-2, 5 days
Description: as §5, §2, §3, §4

[20] = SPR, DDB1 binding moieties with linkers and/or target protein binding moiety, read-out: Binding (Kd)
[21] = indicated concentrations, 8 hours, immunoblot

T1 sequence (Q09472 whole entry): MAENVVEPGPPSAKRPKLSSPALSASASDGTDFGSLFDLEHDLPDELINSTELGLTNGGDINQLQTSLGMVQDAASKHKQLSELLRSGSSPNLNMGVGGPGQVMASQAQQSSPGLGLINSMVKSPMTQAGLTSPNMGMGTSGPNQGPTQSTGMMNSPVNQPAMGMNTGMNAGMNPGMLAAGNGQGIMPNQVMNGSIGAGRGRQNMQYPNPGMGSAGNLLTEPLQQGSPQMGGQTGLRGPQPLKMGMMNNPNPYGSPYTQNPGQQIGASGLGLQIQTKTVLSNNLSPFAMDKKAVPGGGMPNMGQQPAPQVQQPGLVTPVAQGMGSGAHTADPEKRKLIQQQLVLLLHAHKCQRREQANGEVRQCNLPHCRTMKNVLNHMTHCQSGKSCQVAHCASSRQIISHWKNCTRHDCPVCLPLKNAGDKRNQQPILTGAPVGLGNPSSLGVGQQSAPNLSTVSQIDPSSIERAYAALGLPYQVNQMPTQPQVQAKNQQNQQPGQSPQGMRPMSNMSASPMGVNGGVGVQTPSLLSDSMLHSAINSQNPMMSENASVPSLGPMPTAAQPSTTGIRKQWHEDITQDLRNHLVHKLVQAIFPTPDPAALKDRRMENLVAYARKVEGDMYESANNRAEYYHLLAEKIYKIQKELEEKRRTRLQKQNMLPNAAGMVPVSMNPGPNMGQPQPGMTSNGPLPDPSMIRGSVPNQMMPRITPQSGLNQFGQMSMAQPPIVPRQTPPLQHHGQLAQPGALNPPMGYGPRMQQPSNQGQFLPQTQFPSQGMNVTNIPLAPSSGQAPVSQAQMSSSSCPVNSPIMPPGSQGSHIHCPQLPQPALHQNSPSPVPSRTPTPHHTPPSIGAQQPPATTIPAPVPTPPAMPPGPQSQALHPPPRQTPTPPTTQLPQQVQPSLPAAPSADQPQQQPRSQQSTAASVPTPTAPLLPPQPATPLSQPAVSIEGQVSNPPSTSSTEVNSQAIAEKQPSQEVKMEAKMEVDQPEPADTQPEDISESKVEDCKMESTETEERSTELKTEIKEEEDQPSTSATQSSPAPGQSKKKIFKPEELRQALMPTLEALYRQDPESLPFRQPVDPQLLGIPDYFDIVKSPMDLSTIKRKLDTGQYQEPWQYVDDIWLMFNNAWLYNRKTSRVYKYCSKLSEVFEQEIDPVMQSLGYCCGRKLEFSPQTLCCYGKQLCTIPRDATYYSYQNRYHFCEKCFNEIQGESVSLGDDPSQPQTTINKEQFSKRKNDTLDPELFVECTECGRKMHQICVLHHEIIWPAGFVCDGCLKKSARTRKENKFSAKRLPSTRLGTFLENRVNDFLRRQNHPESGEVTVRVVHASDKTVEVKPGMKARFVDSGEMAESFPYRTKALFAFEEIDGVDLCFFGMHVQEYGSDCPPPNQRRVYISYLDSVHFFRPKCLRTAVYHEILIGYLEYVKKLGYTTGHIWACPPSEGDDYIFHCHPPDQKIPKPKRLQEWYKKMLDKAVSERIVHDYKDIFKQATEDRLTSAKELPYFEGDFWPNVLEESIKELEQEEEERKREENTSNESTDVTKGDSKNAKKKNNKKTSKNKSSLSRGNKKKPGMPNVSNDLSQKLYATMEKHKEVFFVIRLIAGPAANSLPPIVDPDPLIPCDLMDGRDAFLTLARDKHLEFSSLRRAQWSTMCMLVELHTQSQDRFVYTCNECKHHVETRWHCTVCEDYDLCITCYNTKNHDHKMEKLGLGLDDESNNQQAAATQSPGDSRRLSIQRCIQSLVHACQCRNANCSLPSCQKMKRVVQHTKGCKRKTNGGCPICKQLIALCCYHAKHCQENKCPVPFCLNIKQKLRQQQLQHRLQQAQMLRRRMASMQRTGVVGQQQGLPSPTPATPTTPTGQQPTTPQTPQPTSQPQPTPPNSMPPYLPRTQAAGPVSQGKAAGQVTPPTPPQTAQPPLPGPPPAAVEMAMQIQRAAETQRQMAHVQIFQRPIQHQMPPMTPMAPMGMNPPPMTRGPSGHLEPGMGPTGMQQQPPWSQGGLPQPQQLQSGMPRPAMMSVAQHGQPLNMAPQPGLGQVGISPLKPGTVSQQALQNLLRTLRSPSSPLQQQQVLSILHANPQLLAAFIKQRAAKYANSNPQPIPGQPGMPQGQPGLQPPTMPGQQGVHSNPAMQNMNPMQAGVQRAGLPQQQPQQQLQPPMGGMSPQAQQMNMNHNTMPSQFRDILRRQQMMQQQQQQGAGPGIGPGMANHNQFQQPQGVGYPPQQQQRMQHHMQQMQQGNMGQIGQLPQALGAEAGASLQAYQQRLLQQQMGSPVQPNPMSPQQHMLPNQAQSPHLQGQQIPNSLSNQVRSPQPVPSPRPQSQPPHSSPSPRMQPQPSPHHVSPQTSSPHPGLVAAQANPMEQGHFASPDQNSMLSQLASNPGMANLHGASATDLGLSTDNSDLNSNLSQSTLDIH
Sequence of Human DDB1 (Q16531 whole entry): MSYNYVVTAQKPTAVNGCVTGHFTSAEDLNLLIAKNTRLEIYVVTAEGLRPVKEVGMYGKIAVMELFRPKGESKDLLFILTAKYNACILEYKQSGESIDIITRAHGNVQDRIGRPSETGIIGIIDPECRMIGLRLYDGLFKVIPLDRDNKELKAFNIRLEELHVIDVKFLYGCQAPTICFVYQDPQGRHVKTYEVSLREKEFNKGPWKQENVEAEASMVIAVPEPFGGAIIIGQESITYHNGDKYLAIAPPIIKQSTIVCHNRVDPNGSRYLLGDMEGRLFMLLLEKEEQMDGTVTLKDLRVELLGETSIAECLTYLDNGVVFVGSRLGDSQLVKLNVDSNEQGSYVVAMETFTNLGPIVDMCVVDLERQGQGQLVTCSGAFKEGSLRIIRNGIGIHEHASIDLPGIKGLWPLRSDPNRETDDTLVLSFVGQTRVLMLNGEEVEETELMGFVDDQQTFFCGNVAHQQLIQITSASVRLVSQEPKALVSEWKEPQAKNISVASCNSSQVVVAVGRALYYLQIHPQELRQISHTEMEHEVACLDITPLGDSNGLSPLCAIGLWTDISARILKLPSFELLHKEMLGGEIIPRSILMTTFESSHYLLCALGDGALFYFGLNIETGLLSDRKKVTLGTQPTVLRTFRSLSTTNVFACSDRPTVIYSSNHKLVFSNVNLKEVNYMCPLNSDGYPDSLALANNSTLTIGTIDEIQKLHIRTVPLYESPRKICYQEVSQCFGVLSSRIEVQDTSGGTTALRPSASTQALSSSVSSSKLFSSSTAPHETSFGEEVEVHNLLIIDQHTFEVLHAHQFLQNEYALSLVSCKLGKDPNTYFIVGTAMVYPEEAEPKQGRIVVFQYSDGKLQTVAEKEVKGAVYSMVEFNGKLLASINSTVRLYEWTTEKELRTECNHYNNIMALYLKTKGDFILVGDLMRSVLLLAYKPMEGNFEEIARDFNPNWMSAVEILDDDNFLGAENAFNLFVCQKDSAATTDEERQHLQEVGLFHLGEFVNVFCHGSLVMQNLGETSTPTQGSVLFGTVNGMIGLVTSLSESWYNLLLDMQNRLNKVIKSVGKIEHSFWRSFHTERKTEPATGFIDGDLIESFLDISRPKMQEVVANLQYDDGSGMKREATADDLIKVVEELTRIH
Sequence of CDK4 (P11802 whole entry): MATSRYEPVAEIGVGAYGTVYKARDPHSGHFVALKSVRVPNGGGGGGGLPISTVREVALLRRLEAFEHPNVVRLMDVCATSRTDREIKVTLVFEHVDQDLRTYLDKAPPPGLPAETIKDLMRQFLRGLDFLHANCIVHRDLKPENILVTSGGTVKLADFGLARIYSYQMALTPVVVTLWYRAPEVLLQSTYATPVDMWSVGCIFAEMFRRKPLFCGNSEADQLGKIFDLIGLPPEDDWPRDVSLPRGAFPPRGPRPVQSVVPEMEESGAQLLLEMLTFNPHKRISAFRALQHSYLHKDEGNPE

CC(=O)Nc1cc(NCCCCN)ccc1C(=O)Nc1nc(C)c([N+](=O)[O-])s1 [BL-11, 2-Acetamido-4-((4-aminobutyl)amino)-N-(4-methyl-5-nitrothiazol-2-yl)benzamide]
Kd [1, 20]: 20000 to 100000 nM
CDK4 protein levels [2]: didn't have a significant effect

CC(=O)Nc1cc(NCCCCNC(=O)CN2CCC(n3nc(N4CCCc5cc(-c6cnn(C)c6)c(C(F)F)cc54)c4c3CCN(C(C)=O)C4)CC2)ccc1C(=O)Nc1ccc([N+](=O)[O-])s1 [D-13, 2-Acetamido-4-((4-(2-(4-(5-acetyl-3-(7-(difluoromethyl)-6-(1-methyl-1H-pyrazol-4-yl)-3,4-dihydroquinolin-1 (2H)-yl)-4,5,6,7-tetrahydro-1H-pyrazolo[4,3-c]pyridin-1-yl)piperidin-1-yl)acetamido)butyl)amino)-N-(5-nitrothiophen-2-yl)benzamide]
time at which significant degradation of P300 was detected ([3]; 500 nM, time course): 2 to 4 h
P300 protein levels [3, 21]: significantly decreased in a concentration-dependent manner
time at which significant degradation of CBP was detected ([4]; 500 nM, time course): 2 to 4 h
CBP protein levels [4, 21]: significantly decreased in a concentration-dependent manner
Kd [1, 20]: 20000 to 100000 nM
compound-induced degradation under co-administration of MG-132 or bortezomib (BTZ), or MLN4924 [5]: compromised
compound-mediated degradation under co-administration with excess DDB1 ligand BL-11 [5]: partially neutralized

CC(=O)Nc1cc(NCCOCCOCCOCCNC(=O)CN2CCN(c3ccc(Nc4ncc5c(C)c(C(C)=O)c(=O)n(C6CCCC6)c5n4)nc3)CC2)ccc1C(=O)Nc1nc(C)c([N+](=O)[O-])s1 [D-46, 2-Acetamido-4-((1-(4-(6-((6-acetyl-8-cyclopentyl-5-methyl-7-oxo-7,8-dihydropyrido[2,3-d]pyrimidin-2-yl)amino)pyridin-3-yl)piperazin-1-yl)-2-oxo-6,9,12-trioxa-3-azatetradecan-14-yl)amino)-N-(4-methyl-5-nitrothiazol-2-yl)benzamide]
Kd [1, 20]: < 20000 nM

CC(=O)Nc1cc(NCCOCCOCCOCCOCCNC(=O)CN2CCN(c3ccc(Nc4ncc5c(C)c(C(C)=O)c(=O)n(C6CCCC6)c5n4)nc3)CC2)ccc1C(=O)Nc1nc(C)c([N+](=O)[O-])s1 [D-47, 2-Acetamido-4-((1-(4-(6-((6-acetyl-8-cyclopentyl-5-methyl-7-oxo-7,8-dihydropyrido[2,3-d]pyrimidin-2-yl)amino)pyridin-3-yl)piperazin-1-yl)-2-oxo-6,9,12,15-tetraoxa-3-azaheptadecan-17-yl)amino)-N-(4-methyl-5-nitrothiazol-2-yl)benzamide]
Kd [1, 20]: < 20000 nM

CC(=O)c1c(C)c2cnc(Nc3ccc(N4CCN(CC(=O)NCCOCCOCCOCCOCCNc5ccc(C(=O)Nc6ncc([N+](=O)[O-])s6)c(C)c5)CC4)cn3)nc2n(C2CCCC2)c1=O [D-128, 4-((1-(4-(6-((6-Acetyl-8-cyclopentyl-5-methyl-7-oxo-7,8-dihydropyrido[2,3-d]pyrimidin-2-yl)amino)pyridin-3-yl)piperazin-1-yl)-2-oxo-6,9,12,15-tetraoxa-3-azaheptadecan-17-yl)amino)-2-methyl-N-(5-nitrothiazol-2-yl)benzamide]
reduction of cell viability compared to palbociclib [6]: more effective at lower doses than palbociclib
IC50 [7]: < 2000 nM
IC50 [8]: < 2000 nM
IC50 [9]: < 2000 nM
IC50 [10]: < 2000 nM
IC50 [11]: < 2000 nM
IC50 [12]: < 2000 nM
IC50 [13]: < 2000 nM
IC50 [14]: < 2000 nM
IC50 [15]: 2000 to 10000 nM
IC50 [16]: < 2000 nM
IC50 [17]: < 2000 nM
IC50 [18]: < 2000 nM
IC50 [19]: < 2000 nM

CC(=O)c1c(C)c2cnc(Nc3ccc(N4CCN(CC(=O)NCCOCCOCCOCCOCCOCCNc5ccc(C(=O)Nc6ncc([N+](=O)[O-])s6)c(C)c5)CC4)cn3)nc2n(C2CCCC2)c1=O [D-129, 4-((1-(4-(6-((6-Acetyl-8-cyclopentyl-5-methyl-7-oxo-7,8-dihydropyrido[2,3-d]pyrimidin-2-yl)amino)pyridin-3-yl)piperazin-1-yl)-2-oxo-6,9,12,15,18-pentaoxa-3-azaicosan-20-yl)amino)-2-methyl-N-(5-nitrothiazol-2-yl)benzamide]
reduction of cell viability compared to palbociclib [6]: more effective at lower doses than palbociclib
IC50 [7]: < 2000 nM
IC50 [8]: < 2000 nM
IC50 [9]: < 2000 nM
IC50 [10]: < 2000 nM
IC50 [11]: < 2000 nM
IC50 [12]: < 2000 nM
IC50 [13]: < 2000 nM
IC50 [14]: < 2000 nM
IC50 [15]: 2000 to 10000 nM
IC50 [16]: < 2000 nM
IC50 [17]: < 2000 nM
IC50 [18]: < 2000 nM
IC50 [19]: < 2000 nM

CC(=O)c1c(C)c2cnc(Nc3ccc(N4CCN(CC(=O)NCCOCCOCCOCCOCCOCCOCCNc5ccc(C(=O)Nc6ncc([N+](=O)[O-])s6)c(C)c5)CC4)cn3)nc2n(C2CCCC2)c1=O [D-130, 4-((1-(4-(6-((6-Acetyl-8-cyclopentyl-5-methyl-7-oxo-7,8-dihydropyrido[2,3-d]pyrimidin-2-yl)amino)pyridin-3-yl)piperazin-1-yl)-2-oxo-6,9,12,15,18,21-hexaoxa-3-azatricosan-23-yl)amino)-2-methyl-N-(5-nitrothiazol-2-yl)benzamide]
reduction of cell viability compared to palbociclib [6]: more effective at lower doses than palbociclib
IC50 [7]: < 2000 nM
IC50 [8]: < 2000 nM
IC50 [9]: < 2000 nM
IC50 [10]: < 2000 nM
IC50 [11]: 2000 to 10000 nM
IC50 [12]: < 2000 nM
IC50 [13]: < 2000 nM
IC50 [14]: < 2000 nM
IC50 [15]: 2000 to 10000 nM
IC50 [16]: < 2000 nM
IC50 [17]: < 2000 nM
IC50 [18]: < 2000 nM
IC50 [19]: < 2000 nM

CC(=O)c1c(C)c2cnc(Nc3ccc(N4CCNCC4)cn3)nc2n(C2CCCC2)c1=O [palbociclib, reference compound]
IC50 [7]: 2000 to 10000 nM
IC50 [8]: > 10000 nM
IC50 [9]: > 10000 nM
IC50 [10]: > 10000 nM
IC50 [11]: 2000 to 10000 nM
IC50 [12]: 2000 to 10000 nM
IC50 [13]: > 10000 nM
IC50 [14]: > 10000 nM
IC50 [15]: > 10000 nM
IC50 [16]: > 10000 nM
CDK4 protein levels [2]: didn't have a significant effect
IC50 [17]: > 10000 nM
IC50 [18]: > 10000 nM
IC50 [19]: 2000 to 10000 nM

SRLNRRASF [Peptide 7]
Kd [1]: 20000 to 100000 nM

Reference: patent US20240066136A1, “MODIFIED PROTEINS AND PROTEIN DEGRADERS” (Cullgen (Shanghai), Inc., priority 2020, published 2024)
